Patent US11691984B2, “Compounds and methods for DCAF-mediated protein degradation” (The Scripps Research Institute, priority 2018, dated 2023)

Assays:
ACAT1 = molecular target: T1, ACAT1 (Homo sapiens, UniProt P24752); test: Competitive ABPP (TMT) of cysteine engagement in ACAT1; assay type: cell-based; conditions: HEK293T, 1.5 h
T1 construct: endogenous in cells; host or cells: HEK293T
T1 sequence (P24752 34-427): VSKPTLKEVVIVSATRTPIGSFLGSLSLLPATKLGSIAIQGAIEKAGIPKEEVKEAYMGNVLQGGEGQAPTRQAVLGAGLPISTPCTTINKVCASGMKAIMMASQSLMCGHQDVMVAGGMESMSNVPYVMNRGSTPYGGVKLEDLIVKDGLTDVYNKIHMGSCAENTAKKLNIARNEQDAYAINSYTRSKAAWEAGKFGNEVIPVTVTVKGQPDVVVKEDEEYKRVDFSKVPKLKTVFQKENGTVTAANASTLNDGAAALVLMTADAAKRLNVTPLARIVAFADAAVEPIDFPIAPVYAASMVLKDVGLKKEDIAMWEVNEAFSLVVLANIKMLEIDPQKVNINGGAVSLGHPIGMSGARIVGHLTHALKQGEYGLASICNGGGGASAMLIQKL
Description: HEK293T cells were treated with DMSO (four biological replicates), 2 μM KB02-SLF (three biological replicates) or 20 μM KB02-JQ1 (three biological replicates) for 1.5 h (ten samples in total). Cells were collected, washed once with PBS and lysed in PBS by sonication (40%, 4, 20 pulses). Samples were clarified by centrifugation for 10 min at 8,000 g. Lysate was adjusted to 1.0 mg/mL in 500 μL. Samples were labeled with 100 μM iodoacetamide alkyne (5 μL of 10 mM stock in DMSO) at room temperature for 1 hour, conjugated by CuACC to desthiobiotin azide (10 μL of 5 mM stock in DMSO, final concentration=100 tris(2-carboxyethyl)phosphine hydrochloride (TCEP, 10 μL of 50 mM stock in H2O, final concentration=1 mM), TBTA (30 μL of 1.7 mM stock in 4:1 tBuOH:DMSO, final concentration=100 μM) and CuSO4 (10 μL of 50 mM stock in H2O, final concentration=1 mM). The samples were allowed to react for 1 hour at room temperature. Proteins were precipitated by adding 3.5 mL of H2O, 4 mL of methanol and 1.5 mL of chloroform, followed by centrifugation at 5,000 g for 15 min (4° C.). After aspirating the top layer, the protein pellets with bottom layer were washed with 8 mL cold methanol by centrifugation at 5,000 g for 15 min (4° C.). […]
(§1) The samples were analyzed in Orbitrap Fusion Tribrid mass spectrometer (Thermo Scientific) coupled to UltiMate 3000 HPLC system (Thermo Scientific). […]

DCAF16 = molecular target: T2, DCAF16 (Homo sapiens, UniProt Q9NXF7); test: Competitive ABPP (TMT) of cysteine engagement in endogenous DCAF16; assay type: cell-based; conditions: HEK293T, 1.5 h
T2 construct: endogenously expressed DCAF16 in HEK293T cells; endogenous in cells; host or cells: HEK293T
Description: HEK293T cells were treated with DMSO (four biological replicates), 2 μM KB02-SLF (three biological replicates) or 20 μM KB02-JQ1 (three biological replicates) for 1.5 h (ten samples in total). Cells were collected, washed once with PBS and lysed in PBS by sonication (40%, 4, 20 pulses). Samples were clarified by centrifugation for 10 min at 8,000 g. Lysate was adjusted to 1.0 mg/mL in 500 μL. Samples were labeled with 100 μM iodoacetamide alkyne (5 μL of 10 mM stock in DMSO) at room temperature for 1 hour, conjugated by CuACC to desthiobiotin azide (10 μL of 5 mM stock in DMSO, final concentration=100 tris(2-carboxyethyl)phosphine hydrochloride (TCEP, 10 μL of 50 mM stock in H2O, final concentration=1 mM), TBTA (30 μL of 1.7 mM stock in 4:1 tBuOH:DMSO, final concentration=100 μM) and CuSO4 (10 μL of 50 mM stock in H2O, final concentration=1 mM). The samples were allowed to react for 1 hour at room temperature. Proteins were precipitated by adding 3.5 mL of H2O, 4 mL of methanol and 1.5 mL of chloroform, followed by centrifugation at 5,000 g for 15 min (4° C.). After aspirating the top layer, the protein pellets with bottom layer were washed with 8 mL cold methanol by centrifugation at 5,000 g for 15 min (4° C.). Protein pellets were resuspended in 90 μL of buffer containing 9 M urea, 10 mM DTT and 50 mM tetramethylammonium bicarbonate (pH 8.5), sonicated (40%, 4, 5 pulses) and heated at 65° C. for 20 min. Samples were cooled to room temperature and alkylated with 50 mM iodoacetamide (10 μL of 500 mM stock in H2O) at 37° C. for 30 minutes. Samples were diluted with 350 μL of 50 mM tetramethylammonium bicarbonate (pH 8.5) and digested with 2 μg trypsin at 37° C. for 4 hours. 40 μL of streptavidin-agarose beads slurry was washed in immunoprecipitation (IP) washing buffer and added to each sample. Beads with peptide samples were rotated for 1 hour at room temperature, filtered off by micro Bio-Spin chromatography column (Bio-Rad) and washed with 1 mL of IP washing buffer (three times), 1 mL of PBS (three times) and 1 mL of H2O. Peptides were eluted by adding 300 μL of 50% acetonitrile with 0.1% of formic acid and dried in vacuum concentrator.
Peptides were resuspended in 100 μL of 30% acetonitrile in 200 mM EPPS (pH 8) and labeled with TMT10plex isobaric reagent following the manufacturer's instructions. 0.15% of hydroxylamine (3 μL of 5% stock in H2O) was added to each sample to quench the reaction (incubate for 15 minutes). After adding 5 μL of formic acid to each sample, 10 peptide samples were combined and dried in vacuum concentrator. […]
as §1

Cc1sc2c(c1C)C(c1ccc(Cl)cc1)=N[C@@H](CC(=O)NCCOCCOCCNC(=O)COc1ccc3c(c1)CCCN3C(=O)CCl)c1nnc(C)n1-2 [KB02-JQ1, (S)-2-((1-(2-chloroacetyl)-1,2,3,4-tetrahydroquinolin-6-yl)oxy)-N-(2-(2-(2-(2-(4-(4-chlorophenyl)-2,3,9-trimethyl-6H-thieno[3,2-f][1,2,4]triazolo[4,3-a][1,4]diazepin-6-yl)acetamido)ethoxy)ethoxy)ethyl)acetamide]
engagement of ACAT1 C126 (ACAT1; KB02-JQ1 20 μM): fully engaged | engagement of DCAF16 C119 (DCAF16; KB02-JQ1 20 μM): no evidence of engagement | engagement of DCAF16 peptide (aa 168-184) containing cysteines 173 and 177-179 (DCAF16; KB02-JQ1 20 μM): 40%

CCC(C)(C)C(=O)C(=O)N1CCCC[C@H]1C(=O)O[C@H](CCc1ccc(OC)c(OC)c1)c1cccc(NC(=O)CCOCCOCCNC(=O)COc2ccc3c(c2)CCCN3C(=O)CCl)c1 [KB02-SLF, (R)-1-(3-(3-(2-(2-(2-((1-(2-chloroacetyl)-1,2,3,4-tetrahydroquinolin-6-yl)oxy)acetamido)ethoxy)ethoxy)propanamido)phenyl)-3-(3,4-dimethoxyphenyl)propyl (S)-1-(3,3-dimethyl-2-oxopentanoyl)piperidine-2-carboxylate]
engagement of ACAT1 C126 (ACAT1; KB02-SLF 2 μM): fully engaged | engagement of DCAF16 C119 (DCAF16; KB02-SLF 2 μM): no evidence of engagement | engagement of DCAF16 peptide (aa 168-184) containing cysteines 173 and 177-179 (DCAF16; KB02-SLF 2 μM): ~10%
